Reference: paper PMC12883167 (Bioorganic & medicinal chemistry letters, 2019)
Where “and” joins values, the source holds several entries; their conditions need not be identical. Equal entries are not always repeated. Numbered stars: 1 amine (or outer) side, 2 acyl side, 3 side chain; on linkers, the order of the positions; unused ones are H or OH. Square brackets hold non-standard residues; d marks the D form. Peptide text beside a SMILES is read from it. * marks the point of attachment. cisHyp = O=C(O)[C@@H]1C[C@H](O)CN1; Hyp = O=C(O)[C@@H]1C[C@@H](O)CN1; Chg = N[C@H](C(=O)O)C1CCCCC1; Phg = N[C@H](C(=O)O)c1ccccc1; Tle = CC(C)(C)[C@H](N)C(=O)O; NMeV = CN[C@H](C(=O)O)C(C)C; αMeP = C[C@@]1(C(=O)O)CCCN1; Pip = O=C(O)[C@@H]1CCCCN1; Ac6c = NC1(C(=O)O)CCCCC1; Ac5c = NC1(C(=O)O)CCCC1; Cbz = O=C(OCc1ccccc1)*; CO = O=C([*:1])[*:2]; Bz = O=C(c1ccccc1)*; NHPh = c1ccc(N*)cc1; CH2F = FC*

Tests used:
[1] = target: T1, MALT1 (Homo sapiens, UniProt Q9UDY8); test: MALT1 biochemical assay; conditions: at 5 μM
T1 sequence (Q9UDY8 1-824): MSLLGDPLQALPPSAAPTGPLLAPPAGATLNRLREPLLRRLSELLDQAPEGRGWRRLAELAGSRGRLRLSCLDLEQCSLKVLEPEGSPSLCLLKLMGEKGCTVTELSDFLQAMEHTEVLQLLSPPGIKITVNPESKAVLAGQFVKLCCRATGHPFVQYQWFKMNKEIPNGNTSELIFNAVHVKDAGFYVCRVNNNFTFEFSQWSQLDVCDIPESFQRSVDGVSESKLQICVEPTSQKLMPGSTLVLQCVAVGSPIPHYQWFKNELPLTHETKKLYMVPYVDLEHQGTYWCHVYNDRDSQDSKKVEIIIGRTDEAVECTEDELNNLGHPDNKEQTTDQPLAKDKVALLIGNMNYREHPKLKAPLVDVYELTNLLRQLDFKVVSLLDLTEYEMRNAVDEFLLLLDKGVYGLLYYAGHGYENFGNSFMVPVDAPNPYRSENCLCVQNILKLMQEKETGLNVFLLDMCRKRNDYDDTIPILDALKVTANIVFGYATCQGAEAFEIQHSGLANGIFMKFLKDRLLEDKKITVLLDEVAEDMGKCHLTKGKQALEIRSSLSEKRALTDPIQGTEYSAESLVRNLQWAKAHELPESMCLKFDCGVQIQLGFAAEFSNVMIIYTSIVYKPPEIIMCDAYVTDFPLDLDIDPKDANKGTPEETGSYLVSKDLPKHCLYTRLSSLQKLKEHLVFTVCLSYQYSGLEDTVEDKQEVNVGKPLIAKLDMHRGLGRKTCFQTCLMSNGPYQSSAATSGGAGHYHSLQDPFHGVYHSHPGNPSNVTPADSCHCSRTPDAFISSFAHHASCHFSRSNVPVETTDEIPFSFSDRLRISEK

[2] = tested on: RelB cleavage (MALT1 protease activity) in OCI-Ly3 cells; test: Inhibition of RelB cleavage in OCI-Ly3 cells by Western blot; assay type: cell-based; conditions: at 20 μM
[3] = tested on: OCI-Ly3 cells; test: OCI-Ly3 cell proliferation assay
[4] = target: T2, MALT1 protease (Homo sapiens, UniProt Q9UDY8); assay type: cell-based; conditions: Cell (Glo), GloSensor reporter, PMA/IO activated Raji cells
T2 sequence (Q9UDY8 1-824): T1 sequence (Q9UDY8 1-824)

[5] = target: T1, MALT1; conditions: PD studies ref 20; cited from earlier work
[6] = Plasma levels upon IV and IP dosing in mice; assay type: in vivo
[7] = tested on: trypsin; test: Protease selectivity profiling, trypsin; assay type: biochemical; conditions: at 100 nM
[8] = tested on: ABC-DLBCL xenograft models; conditions: two ABC-DLBCL xenograft models ref 20; cited from earlier work
[9] = target: cathepsin B (Homo sapiens, UniProt P07858); test: Protease selectivity profiling, cathepsin B; assay type: biochemical; conditions: at 100 nM
[10] = tested on: calpain; test: Protease selectivity profiling, calpain; assay type: biochemical; conditions: at 100 nM
[11] = target: cathepsin S (Homo sapiens, UniProt P25774); test: Protease selectivity profiling, cathepsin S; assay type: biochemical; conditions: at 100 nM
Chain of cathepsin S (P25774 115-331, species assumed): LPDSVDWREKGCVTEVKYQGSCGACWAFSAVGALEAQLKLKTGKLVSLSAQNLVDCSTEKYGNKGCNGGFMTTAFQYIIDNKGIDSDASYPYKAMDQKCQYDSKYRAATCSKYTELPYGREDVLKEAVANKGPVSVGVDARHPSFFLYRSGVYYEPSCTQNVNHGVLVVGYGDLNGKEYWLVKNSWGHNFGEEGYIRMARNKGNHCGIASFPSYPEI

[12] = tested on: panel of 26 proteases, primarily caspases and cathepsins; test: Selectivity panel of 26 proteases; assay type: biochemical; conditions: profiling at lower concentrations

SMILES	IC50 [4]	also measured
CCC(=O)[C@H](CCCNC(=N)N)NC(=O)[C@@H]1CCCN1C(=O)[C@@H](NC(=O)[C@H](CC(C)C)NC(=O)OCc1ccccc1)C(C)C [Compound 2]	> 20000 nM	activity in the biochemical assay [1]: no activity; inhibition of RelB cleavage [2]: no effects; activity in the cell (proliferation) assay, in words [3]: no activity
CN[C@H](C(=O)N1CCC[C@H]1C(=O)N[C@@H](CCCNC(=N)N)C(=O)CF)C(C)C [Compound 3] (H-[NMeV]-Pro-Arg-CH2F)	> 20000 nM	activity in the cell (proliferation) assay, in words [3]: inactive
CC(C)[C@H](NC(=O)OCc1ccccc1)C(=O)N1CCC[C@H]1C(=O)N[C@@H](CCCNC(=N)N)C(=O)CF [Compound 4, Z-VPR-fmk] (Cbz-Val-Pro-Arg-CH2F)	1960 nM	
CC(C)[C@@H](C(=O)N1CCC[C@H]1C(=O)N[C@@H](CCCNC(=N)N)C(=O)CF)N(C)C(=O)OCc1ccccc1 [Compound 5] (Cbz-[NMeV]-Pro-Arg-CH2F)	3000 nM	
CC(C)[C@H](NC(=O)c1ccccc1)C(=O)N1CCC[C@H]1C(=O)N[C@@H](CCCNC(=N)N)C(=O)CF [Compound 19] (Bz-Val-Pro-Arg-CH2F)	640 nM	
CC(C)[C@H](NC(=O)c1ccccc1Br)C(=O)N1CCC[C@H]1C(=O)N[C@@H](CCCNC(=N)N)C(=O)CF [Compound 20]	1110 nM	
CC(C)[C@H](NC(=O)c1cccc(Br)c1)C(=O)N1CCC[C@H]1C(=O)N[C@@H](CCCNC(=N)N)C(=O)CF [Compound 21]	180 nM	
CC(C)[C@H](NC(=O)c1ccc(Br)cc1)C(=O)N1CCC[C@H]1C(=O)N[C@@H](CCCNC(=N)N)C(=O)CF [Compound 22]	71 nM and 70 nM	in vivo inhibition of MALT1 activity [5]: in vivo inhibition of MALT1 activity; plasma levels [6]: moderate plasma levels for several hours; potency against trypsin [7]: > 80%; effects on tumor growth [8]: moderate effects on tumor growth
CC(C)[C@H](NC(=O)c1ccc(Cl)cc1)C(=O)N1CCC[C@H]1C(=O)N[C@@H](CCCNC(=N)N)C(=O)CF [Compound 23]	180 nM	
CC(C)[C@H](NC(=O)c1ccc(C#N)cc1)C(=O)N1CCC[C@H]1C(=O)N[C@@H](CCCNC(=N)N)C(=O)CF [Compound 24]	710 nM	
CC(C)[C@H](NC(=O)c1ccc(C(F)(F)F)cc1)C(=O)N1CCC[C@H]1C(=O)N[C@@H](CCCNC(=N)N)C(=O)CF [Compound 25]	230 nM	
COc1ccc(C(=O)N[C@H](C(=O)N2CCC[C@H]2C(=O)N[C@@H](CCCNC(=N)N)C(=O)CF)C(C)C)cc1 [Compound 26]	800 nM	
CC(C)c1ccc(C(=O)N[C@H](C(=O)N2CCC[C@H]2C(=O)N[C@@H](CCCNC(=N)N)C(=O)CF)C(C)C)cc1 [Compound 27]	70 nM	
CC(C)[C@H](NC(=O)C1CCCCC1)C(=O)N1CCC[C@H]1C(=O)N[C@@H](CCCNC(=N)N)C(=O)CF [Compound 28]	640 nM	
CC(C)[C@H](NC(=O)Nc1ccccc1)C(=O)N1CCC[C@H]1C(=O)N[C@@H](CCCNC(=N)N)C(=O)CF [Compound 29] ({NHPh-CO}-Val-Pro-Arg-CH2F)	170 nM	
CC(C)[C@H](NC(=O)Nc1ccc(Cl)cc1)C(=O)N1CCC[C@H]1C(=O)N[C@@H](CCCNC(=N)N)C(=O)CF [Compound 30]	110 nM	
CC(C)C[C@H](NC(=O)OCc1ccccc1)C(=O)N1CCC[C@H]1C(=O)N[C@@H](CCCNC(=N)N)C(=O)CF [Compound 31] (Cbz-Leu-Pro-Arg-CH2F)	3420 nM	
CC[C@H](C)[C@H](NC(=O)OCc1ccccc1)C(=O)N1CCC[C@H]1C(=O)N[C@@H](CCCNC(=N)N)C(=O)CF [Compound 32] (Cbz-Ile-Pro-Arg-CH2F)	1860 nM	
N=C(N)NCCC[C@H](NC(=O)[C@@H]1CCCN1C(=O)[C@H](Cc1ccccc1)NC(=O)OCc1ccccc1)C(=O)CF [Compound 33]	2030 nM	
N=C(N)NCCC[C@H](NC(=O)[C@@H]1CCCN1C(=O)[C@@H](NC(=O)OCc1ccccc1)C1CCCCC1)C(=O)CF [Compound 34] (Cbz-[Chg]-Pro-Arg-CH2F)	150 nM	

SMILES	IC50 [4]	also measured
CC(C)(C)[C@H](NC(=O)OCc1ccccc1)C(=O)N1CCC[C@H]1C(=O)N[C@@H](CCCNC(=N)N)C(=O)CF [Compound 35] (Cbz-[Tle]-Pro-Arg-CH2F)	710 nM	
N=C(N)NCCC[C@H](NC(=O)[C@@H]1CCCN1C(=O)[C@@H](NC(=O)OCc1ccccc1)c1ccccc1)C(=O)CF [Compound 36] (Cbz-[Phg]-Pro-Arg-CH2F)	1430 nM	
N=C(N)NCCC[C@H](NC(=O)[C@@H]1CCCN1C(=O)C1(NC(=O)OCc2ccccc2)CCCCC1)C(=O)CF [Compound 37] (Cbz-[Ac6c]-Pro-Arg-CH2F)	6000 nM	
N=C(N)NCCC[C@H](NC(=O)[C@@H]1CCCN1C(=O)C1(NC(=O)OCc2ccccc2)CCCC1)C(=O)CF [Compound 38] (Cbz-[Ac5c]-Pro-Arg-CH2F)	5380 nM	
CC(C)[C@H](NC(=O)OCc1ccccc1)C(=O)N[C@@H](CO)C(=O)N[C@@H](CCCNC(=N)N)C(=O)CF [Compound 39]	149 nM	
CC(C)[C@H](NC(=O)OCc1ccccc1)C(=O)N1CCCC[C@H]1C(=O)N[C@@H](CCCNC(=N)N)C(=O)CF [Compound 40] (Cbz-Val-[Pip]-Arg-CH2F)	144 nM	
CC(C)[C@H](NC(=O)OCc1ccccc1)C(=O)N1C[C@H](O)C[C@H]1C(=O)N[C@@H](CCCNC(=N)N)C(=O)CF [Compound 41] (Cbz-Val-[Hyp]-Arg-CH2F)	209 nM	
CC(C)[C@H](NC(=O)OCc1ccccc1)C(=O)N1C[C@@H](O)C[C@H]1C(=O)N[C@@H](CCCNC(=N)N)C(=O)CF [Compound 42] (Cbz-Val-[cisHyp]-Arg-CH2F)	239 nM	
CC(C)[C@H](NC(=O)OCc1ccccc1)C(=O)N1CCC[C@@]1(C)C(=O)N[C@@H](CCCNC(=N)N)C(=O)CF [Compound 43] (Cbz-Val-[αMeP]-Arg-CH2F)	873 nM	
CC(C)[C@H](NC(=O)c1ccc(Br)cc1)C(=O)N[C@@H](CO)C(=O)N[C@@H](CCCNC(=N)N)C(=O)CF [Compound 44]		activity against cathepsin B [9]: active; activity against calpain [10]: active; activity against cathepsin S [11]: active
CC(C)[C@H](NC(=O)c1ccc(Br)cc1)C(=O)N1C[C@H](O)C[C@H]1C(=O)N[C@@H](CCCNC(=N)N)C(=O)CF [Compound 45]	85 nM	
CC(C)[C@H](NC(=O)c1ccc(Br)cc1)C(=O)N1CCCC[C@H]1C(=O)N[C@@H](CCCNC(=N)N)C(=O)CF [Compound 46]	327 nM	selectivity in protease panel [12]: the most selective compound; activity against cathepsin S [11]: highest activity
CC(C)[C@H](NC(=O)c1ccc(Br)cc1)C(=O)N1CC[C@H]1C(=O)N[C@@H](CCCNC(=N)N)C(=O)CF [Compound 47]	219 nM	
CC(C)[C@H](NC(=O)c1ccc(Br)cc1)C(=O)N1COC[C@H]1C(=O)N[C@@H](CCCNC(=N)N)C(=O)CF [Compound 48]	77 nM	
CC(C)[C@H](NC(=O)c1ccc(Br)cc1)C(=O)N1CCOC[C@H]1C(=O)N[C@@H](CCCNC(=N)N)C(=O)CF [Compound 49]	174 nM	
CC(C)[C@H](NC(=O)c1ccc(Br)cc1)C(=O)N1CCC[C@@H]1C(=O)N[C@@H](CCCNC(=N)N)C(=O)CF [Compound 50]	17500 nM	
N=C(N)NCCC[C@H](NC(=O)[C@@H]1CCCN1C(=O)[C@@H](NC(=O)c1ccc(Br)cc1)C1CCCCC1)C(=O)CF [Compound 51]	43 nM	
N=C(N)NCCC[C@H](NC(=O)[C@H](CO)NC(=O)[C@@H](NC(=O)c1ccc(Br)cc1)C1CCCCC1)C(=O)CF [Compound 52]	87 nM	
N=C(N)NCCC[C@H](NC(=O)[C@@H]1C[C@@H](O)CN1C(=O)[C@@H](NC(=O)c1ccc(Br)cc1)C1CCCCC1)C(=O)CF [Compound 53]	65 nM	
CC(C)[C@H](NC(=O)OCc1ccccc1)C(=O)N[C@@H](CCCNC(=N)N)C(=O)N1CCC[C@H]1C(=O)N[C@@H](CCCNC(=N)N)C(=O)CF [Z-VRPR-fmk, reference compound]		inhibition of RelB cleavage [2]: partial inhibition
